According to patent US20090030065A1, “Use of Pde1c and Inhibitors Thereof” (NYCOMED GmbH, priority 2005, published 2009):

How the values were obtained:
Assay type in all cases: biochemical
human recombinant PDE1C1 = human recombinant PDE1C1 (Homo sapiens, UniProt Q14123); assay: Inhibition of recombinant PDE activity, SPA test: PDE1C1; details: for IC50: human recombinant enzyme, read-out: IC50 on PDE 1C1; for Selectivity for PDE1C1 versus other PDE family members tested: see Tab. 1
Experimental: Measurement of the Inhibition of Phosphodiesterase Activity Phosphodiesterase activity is measured in a modified SPA (scintillation proximity assay) test, supplied by Amersham Biosciences (see procedural instructions “phosphodiesterase [3H]cAMP SPA enzyme assay, code TRKQ 7090”), carried out in 96-well microtitre plates (MTP's): The test volume is 100 μl and contains 20 mM Tris buffer (pH 7.4), 0.1 mg of BSA (bovine serum albumin)/ml, 5 mM Mg^2+, 0.5 μM cGMP or cAMP (including about 50,000 cpm of [3H]cGMP or [3H]cAMP as a tracer; whether to use cAMP or cGMP depends on the substrate-specificity of the phosphodiesterase measured), 1 μl of the respective substance dilution in DMSO and sufficient recombinant PDE to ensure that 10-20% of the cGMP or cAMP is converted under the said experimental conditions. […] After a preincubation of 5 min at 37° C., the reaction is started by adding the substrate (cGMP) and the assay is incubated for a further 15 min; after that, it is stopped by adding SPA beads (50 μl). In accordance with the manufacturer's instructions, the SPA beads had previously been resuspended in water, but were then diluted 1:3 (v/v) in water; the diluted solution also contains 3 mM IBMX to ensure a complete PDE activity stop. After the beads have been sedimented (>30 min), the MTP's are analyzed in commercially available luminescence detection devices. The corresponding IC50 values of the compounds for the inhibition of PDE activity are determined from the concentration-effect curves by means of non-linear regression.
(§1) Compound A and B are analyzed for inhibition of PDE family members as described.

[1] = biological target: human recombinant PDE11A4 (Homo sapiens, UniProt Q9HCR9); assay: Inhibition of recombinant PDE activity, SPA test: PDE11A4; details: human recombinant enzyme; read-out: IC50 on PDE 11A4
Experimental: (§2) Measurement of the Inhibition of Phosphodiesterase Activity Phosphodiesterase activity is measured in a modified SPA (scintillation proximity assay) test, supplied by Amersham Biosciences (see procedural instructions “phosphodiesterase [3H]cAMP SPA enzyme assay, code TRKQ 7090”), carried out in 96-well microtitre plates (MTP's): The test volume is 100 μl and contains 20 mM Tris buffer (pH 7.4), 0.1 mg of BSA (bovine serum albumin)/ml, 5 mM Mg^2+, 0.5 μM cGMP or cAMP (including about 50,000 cpm of [3H]cGMP or [3H]cAMP as a tracer; whether to use cAMP or cGMP depends on the substrate-specificity of the phosphodiesterase measured), 1 μl of the respective substance dilution in DMSO and sufficient recombinant PDE to ensure that 10-20% of the cGMP or cAMP is converted under the said experimental conditions. […] After a preincubation of 5 min at 37° C., the reaction is started by adding the substrate (cGMP) and the assay is incubated for a further 15 min; after that, it is stopped by adding SPA beads (50 μl). […] After the beads have been sedimented (>30 min), the MTP's are analyzed in commercially available luminescence detection devices. The corresponding IC50 values of the compounds for the inhibition of PDE activity are determined from the concentration-effect curves by means of non-linear regression.
as §1

human recombinant PDE2A3 = human recombinant PDE2A3 (Homo sapiens, UniProt O00408); assay: Inhibition of recombinant PDE activity, SPA test: PDE2A3; details: human recombinant enzyme; read-out: IC50 on PDE 2A3
Experimental: as §2, §1

human recombinant PDE3A1 = human recombinant PDE3A1 (Homo sapiens, UniProt Q14432); assay: Inhibition of recombinant PDE activity, SPA test: PDE3A1; details: human recombinant enzyme; read-out: IC50 on PDE 3A1
Experimental: as §2, §1

human recombinant PDE10A = human recombinant PDE10A (Homo sapiens, UniProt Q9Y233); assay: Inhibition of recombinant PDE activity, SPA test: PDE10A; details: human recombinant enzyme; read-out: IC50 on PDE 10A
Experimental: as §2, §1

human recombinant PDE5A1 = human recombinant PDE5A1 (Homo sapiens, UniProt O76074); assay: Inhibition of recombinant PDE activity, SPA test: PDE5A1; details: human recombinant enzyme; read-out: IC50 on PDE 5A1
Experimental: as §2, §1

human recombinant PDE4B2 = human recombinant PDE4B2 (Homo sapiens, UniProt Q07343); assay: Inhibition of recombinant PDE activity, SPA test: PDE4B2; details: human recombinant enzyme; read-out: IC50 on PDE 4B2
Experimental: as §2, §1

PDE3 = assay: PDE isoenzyme activities in cellular lysates: PDE3; details: 10 μM, 0.5 μM cyclic AMP
Experimental: (§3) Cells (1-3×10^6) were washed twice in phosphate buffered saline (4° C.) and resuspended in 1 ml homogenization buffer (137 mM NaCl, 2.7 mM KCl, 8.1 mM Na2HPO4, 1.5 mM KH2PO4, 10 mM HEPES, 1 mM EGTA, 1 mM MgCl2, 1 mM-mercaptoethanol, […], […], 50 mM phenylmethylsulfonyl fluoride, 10 mM soybean trypsin inhibitor, 2 mM benzamidine, pH 8.2). Cells were disrupted by sonication (Branson sonifier, 3×15 s) and lysates were immediately used for phosphodiesterase (PDE) activity measurements. PDE activities were assessed in cellular lysates as described (Thompson & Appleman, 1979) with some modifications (Bauer & Schwabe, 1980). The assay mixture (final volume […]) contained (mM): Tris HCl 30; pH 7.4, MgCl2 5, 0.5 μM either cyclic AMP or cyclic GMP as substrate including [^3H]cAMP or [^3H]cGMP (about 30 000 c.p.m. per well), […], PDE isoenzyme-specific activators and inhibitors as described below and cellular lysates. Incubations were performed for 60 min at 37° C. and reactions were terminated by adding […] 0.2 M HCl per well. Assays were left on ice for 10 min and then […] 5′-nucleotidase (Crotalus atrox) was added. […] Columns were eluted with 2 ml 30 mM ammonium formiate (pH 6.0) and radioactivity in the eluate was counted. […] Briefly, PDE4 was calculated as the difference of PDE activities at 0.5 μM cyclic AMP in the presence and absence of 1 μM Piclamilast. […]

PDE2 = biological target: T1, PDE2 (Homo sapiens, UniProt O00408); assay: PDE isoenzyme activities in cellular lysates: PDE2; details: 100 nM
T1 construct: endogenous in cells
Experimental: as §3

PDE4 = assay: PDE isoenzyme activities in cellular lysates: PDE4; details: 1 μM, 0.5 μM cyclic AMP
Experimental: as §3

PDE5 = biological target: T2, PDE5 (Homo sapiens, UniProt O76074); assay: PDE isoenzyme activities in cellular lysates: PDE5; details: 100 nM, 0.5 μM cyclic GMP
T2 construct: PDE activities were assessed in cellular lysates; endogenous in cells
Experimental: Cells (1-3×10^6) were washed twice in phosphate buffered saline (4° C.) and resuspended in 1 ml homogenization buffer (137 mM NaCl, 2.7 mM KCl, 8.1 mM Na2HPO4, 1.5 mM KH2PO4, 10 mM HEPES, 1 mM EGTA, 1 mM MgCl2, 1 mM-mercaptoethanol, 5 mM pepstatin A, 10 mM leupeptin, 50 mM phenylmethylsulfonyl fluoride, 10 mM soybean trypsin inhibitor, 2 mM benzamidine, pH 8.2). Cells were disrupted by sonication (Branson sonifier, 3×15 s) and lysates were immediately used for phosphodiesterase (PDE) activity measurements. PDE activities were assessed in cellular lysates as described (Thompson & Appleman, 1979) with some modifications (Bauer & Schwabe, 1980). The assay mixture (final volume 200 ml) contained (mM): Tris HCl 30; pH 7.4, MgCl2 5, 0.5 μM either cyclic AMP or cyclic GMP as substrate including [^3H]cAMP or [^3H]cGMP (about 30 000 c.p.m. per well), 100 mM EGTA, PDE isoenzyme-specific activators and inhibitors as described below and cellular lysates. Incubations were performed for 60 min at 37° C. and reactions were terminated by adding 50 ml 0.2 M HCl per well. Assays were left on ice for 10 min and then 25 mg 5′-nucleotidase (Crotalus atrox) was added. Following an incubation for 10 min at 37° C. assay mixtures were loaded onto QAE-Sephadex A25 columns (1 ml bed volume). Columns were eluted with 2 ml 30 mM ammonium formiate (pH 6.0) and radioactivity in the eluate was counted. […]

human recombinant PDE1C1, sequence (Q14123 1-634 isoform Q14123-2): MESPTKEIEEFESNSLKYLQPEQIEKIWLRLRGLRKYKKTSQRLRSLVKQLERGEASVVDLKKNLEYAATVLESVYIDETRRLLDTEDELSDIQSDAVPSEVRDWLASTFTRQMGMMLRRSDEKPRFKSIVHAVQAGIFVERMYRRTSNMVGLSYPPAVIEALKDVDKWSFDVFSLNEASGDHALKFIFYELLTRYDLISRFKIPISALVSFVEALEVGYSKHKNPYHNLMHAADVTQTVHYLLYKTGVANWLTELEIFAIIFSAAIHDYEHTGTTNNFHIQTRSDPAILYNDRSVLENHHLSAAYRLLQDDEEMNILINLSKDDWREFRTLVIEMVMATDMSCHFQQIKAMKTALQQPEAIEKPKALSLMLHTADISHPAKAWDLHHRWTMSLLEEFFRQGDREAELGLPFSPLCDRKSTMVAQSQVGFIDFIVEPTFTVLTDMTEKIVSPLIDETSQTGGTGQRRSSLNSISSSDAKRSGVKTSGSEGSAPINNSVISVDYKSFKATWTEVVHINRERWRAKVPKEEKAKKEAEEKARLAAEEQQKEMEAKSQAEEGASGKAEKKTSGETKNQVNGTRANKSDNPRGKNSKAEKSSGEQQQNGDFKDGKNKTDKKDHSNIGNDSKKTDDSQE
human recombinant PDE4B2, sequence (Q07343 1-564 isoform Q07343-2): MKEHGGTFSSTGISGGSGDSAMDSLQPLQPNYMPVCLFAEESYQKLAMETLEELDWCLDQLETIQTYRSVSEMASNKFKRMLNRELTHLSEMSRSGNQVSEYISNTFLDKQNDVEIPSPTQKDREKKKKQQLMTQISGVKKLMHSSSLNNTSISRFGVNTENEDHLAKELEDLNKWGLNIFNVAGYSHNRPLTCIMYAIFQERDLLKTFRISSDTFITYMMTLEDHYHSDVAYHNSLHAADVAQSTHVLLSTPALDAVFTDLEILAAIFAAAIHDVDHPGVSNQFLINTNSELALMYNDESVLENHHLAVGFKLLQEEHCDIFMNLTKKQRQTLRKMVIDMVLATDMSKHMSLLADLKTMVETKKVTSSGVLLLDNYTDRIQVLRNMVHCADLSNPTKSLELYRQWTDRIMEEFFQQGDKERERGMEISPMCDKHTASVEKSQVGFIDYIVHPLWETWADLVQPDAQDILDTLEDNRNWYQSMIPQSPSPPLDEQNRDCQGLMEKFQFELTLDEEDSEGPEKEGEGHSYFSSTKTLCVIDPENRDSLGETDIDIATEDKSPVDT
human recombinant PDE11A4, sequence (Q9HCR9 whole entry): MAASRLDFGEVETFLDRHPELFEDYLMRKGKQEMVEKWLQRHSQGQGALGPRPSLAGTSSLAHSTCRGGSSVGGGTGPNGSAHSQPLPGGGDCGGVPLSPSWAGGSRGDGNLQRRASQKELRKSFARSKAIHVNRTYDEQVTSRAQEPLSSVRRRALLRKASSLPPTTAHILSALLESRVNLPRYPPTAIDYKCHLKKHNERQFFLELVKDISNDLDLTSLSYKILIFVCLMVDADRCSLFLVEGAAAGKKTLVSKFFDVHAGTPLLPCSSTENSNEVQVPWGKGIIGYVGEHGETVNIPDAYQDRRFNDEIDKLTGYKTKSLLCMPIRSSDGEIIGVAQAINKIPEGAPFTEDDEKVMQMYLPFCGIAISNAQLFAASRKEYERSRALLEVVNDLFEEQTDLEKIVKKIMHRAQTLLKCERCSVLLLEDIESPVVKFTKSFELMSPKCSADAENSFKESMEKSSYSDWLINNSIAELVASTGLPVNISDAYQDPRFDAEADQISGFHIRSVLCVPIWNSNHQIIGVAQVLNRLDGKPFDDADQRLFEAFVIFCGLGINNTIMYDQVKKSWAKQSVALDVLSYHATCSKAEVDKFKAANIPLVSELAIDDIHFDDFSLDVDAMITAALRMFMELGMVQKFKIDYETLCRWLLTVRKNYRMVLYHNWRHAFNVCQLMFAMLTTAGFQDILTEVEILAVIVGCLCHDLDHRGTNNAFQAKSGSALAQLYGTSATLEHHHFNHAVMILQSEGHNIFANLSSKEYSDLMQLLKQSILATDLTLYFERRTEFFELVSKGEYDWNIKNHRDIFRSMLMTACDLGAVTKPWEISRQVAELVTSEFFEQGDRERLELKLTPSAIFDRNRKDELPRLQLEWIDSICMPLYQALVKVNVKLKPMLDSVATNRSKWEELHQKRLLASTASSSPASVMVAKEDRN
human recombinant PDE2A3, sequence (O00408 whole entry): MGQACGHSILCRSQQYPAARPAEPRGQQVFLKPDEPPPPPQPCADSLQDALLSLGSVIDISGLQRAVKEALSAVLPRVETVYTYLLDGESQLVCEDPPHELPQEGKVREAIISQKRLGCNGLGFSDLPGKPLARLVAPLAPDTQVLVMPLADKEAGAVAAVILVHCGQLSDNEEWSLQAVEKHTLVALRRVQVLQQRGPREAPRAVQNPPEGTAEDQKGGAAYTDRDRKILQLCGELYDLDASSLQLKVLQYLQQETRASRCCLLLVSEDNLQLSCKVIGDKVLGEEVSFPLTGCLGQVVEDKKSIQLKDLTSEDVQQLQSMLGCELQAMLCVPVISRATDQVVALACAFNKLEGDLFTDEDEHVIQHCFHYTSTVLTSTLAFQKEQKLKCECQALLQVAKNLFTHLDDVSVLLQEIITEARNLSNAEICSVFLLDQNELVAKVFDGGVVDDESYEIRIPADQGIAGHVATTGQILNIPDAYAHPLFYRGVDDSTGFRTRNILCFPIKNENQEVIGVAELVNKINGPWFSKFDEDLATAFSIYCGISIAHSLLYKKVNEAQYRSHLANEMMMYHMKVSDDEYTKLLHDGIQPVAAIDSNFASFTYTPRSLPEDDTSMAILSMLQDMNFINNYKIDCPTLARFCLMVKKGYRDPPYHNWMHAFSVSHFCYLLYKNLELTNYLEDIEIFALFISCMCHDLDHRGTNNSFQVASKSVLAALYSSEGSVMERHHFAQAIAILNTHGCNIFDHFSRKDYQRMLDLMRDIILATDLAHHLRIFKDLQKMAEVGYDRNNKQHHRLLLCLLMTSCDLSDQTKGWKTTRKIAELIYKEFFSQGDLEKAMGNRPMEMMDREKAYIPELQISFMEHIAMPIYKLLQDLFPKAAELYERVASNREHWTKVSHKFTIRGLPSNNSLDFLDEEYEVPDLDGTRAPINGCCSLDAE
human recombinant PDE3A1, sequence (Q14432 whole entry): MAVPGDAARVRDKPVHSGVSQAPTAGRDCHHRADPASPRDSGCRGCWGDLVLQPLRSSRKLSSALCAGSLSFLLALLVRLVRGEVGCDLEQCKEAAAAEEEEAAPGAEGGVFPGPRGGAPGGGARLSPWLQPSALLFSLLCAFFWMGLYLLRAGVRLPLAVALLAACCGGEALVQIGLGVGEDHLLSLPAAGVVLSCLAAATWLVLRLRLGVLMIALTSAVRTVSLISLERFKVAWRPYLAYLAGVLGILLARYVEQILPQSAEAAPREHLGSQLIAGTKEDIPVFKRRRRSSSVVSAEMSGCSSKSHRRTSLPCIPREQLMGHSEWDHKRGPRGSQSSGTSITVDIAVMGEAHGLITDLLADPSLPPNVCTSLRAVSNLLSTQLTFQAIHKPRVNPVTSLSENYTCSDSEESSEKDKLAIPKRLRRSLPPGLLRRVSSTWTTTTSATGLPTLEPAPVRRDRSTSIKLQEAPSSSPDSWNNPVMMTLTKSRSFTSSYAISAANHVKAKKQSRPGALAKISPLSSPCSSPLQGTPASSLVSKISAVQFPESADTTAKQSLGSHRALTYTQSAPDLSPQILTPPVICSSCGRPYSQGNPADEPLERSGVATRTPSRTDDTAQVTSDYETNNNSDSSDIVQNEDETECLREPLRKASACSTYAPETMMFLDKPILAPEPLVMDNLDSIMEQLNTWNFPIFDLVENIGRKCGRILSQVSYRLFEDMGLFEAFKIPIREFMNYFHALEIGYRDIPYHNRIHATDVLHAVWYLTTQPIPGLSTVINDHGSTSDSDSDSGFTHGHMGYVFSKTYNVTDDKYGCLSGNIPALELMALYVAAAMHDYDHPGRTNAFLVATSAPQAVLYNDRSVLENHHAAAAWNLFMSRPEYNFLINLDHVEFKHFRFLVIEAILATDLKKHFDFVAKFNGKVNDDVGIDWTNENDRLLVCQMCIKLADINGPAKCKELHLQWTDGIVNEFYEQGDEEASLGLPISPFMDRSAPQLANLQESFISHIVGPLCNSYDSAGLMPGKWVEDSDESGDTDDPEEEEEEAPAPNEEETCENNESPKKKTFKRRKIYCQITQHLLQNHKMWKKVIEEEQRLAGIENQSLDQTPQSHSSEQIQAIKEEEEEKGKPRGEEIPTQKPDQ
human recombinant PDE10A, sequence (Q9Y233 290-1055 limits assumed): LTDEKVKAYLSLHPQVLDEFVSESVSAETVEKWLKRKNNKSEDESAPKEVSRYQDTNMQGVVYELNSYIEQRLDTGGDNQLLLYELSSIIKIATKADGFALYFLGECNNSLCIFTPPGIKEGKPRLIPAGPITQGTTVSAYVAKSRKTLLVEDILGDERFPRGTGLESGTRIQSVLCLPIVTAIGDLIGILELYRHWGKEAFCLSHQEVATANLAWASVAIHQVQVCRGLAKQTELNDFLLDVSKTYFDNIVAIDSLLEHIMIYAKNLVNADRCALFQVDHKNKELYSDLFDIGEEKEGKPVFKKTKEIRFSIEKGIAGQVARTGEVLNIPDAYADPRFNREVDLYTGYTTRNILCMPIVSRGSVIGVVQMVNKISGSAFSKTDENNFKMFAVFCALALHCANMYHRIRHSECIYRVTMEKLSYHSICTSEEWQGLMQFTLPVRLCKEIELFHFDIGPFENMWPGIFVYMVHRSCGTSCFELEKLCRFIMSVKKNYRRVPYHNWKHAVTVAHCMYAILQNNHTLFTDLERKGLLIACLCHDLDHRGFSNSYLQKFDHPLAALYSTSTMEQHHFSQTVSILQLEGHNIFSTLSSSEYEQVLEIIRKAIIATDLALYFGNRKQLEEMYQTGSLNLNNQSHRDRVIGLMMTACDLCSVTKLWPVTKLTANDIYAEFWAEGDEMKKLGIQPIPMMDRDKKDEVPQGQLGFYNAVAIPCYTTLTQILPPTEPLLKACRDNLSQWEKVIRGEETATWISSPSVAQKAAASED
T1 sequence (O00408 whole entry): as the sequence (O00408 whole entry) above

Structure (SMILES)	IC50 value on human recombinant PDE1C1, in words (human recombinant PDE1C1)	IC50 (human recombinant PDE1C1) [µM]	Selectivity for PDE1C1 versus other PDE family members tested (human recombinant PDE1C1)	IC50 [1] [µM]	IC50 (human recombinant PDE2A3) [µM]	IC50 (human recombinant PDE3A1) [µM]	IC50 (human recombinant PDE10A) [µM]	IC50 (human recombinant PDE5A1) [µM]	IC50 (human recombinant PDE4B2) [µM]	other results
CC(C)(C)CC(C)(C)c1ccc(OCC(=O)N/N=C/c2ccc(-c3cccc(C(=O)O)c3)o2)c([N+](=O)[O-])c1 [Compound A]	in the nanomolar range	0.083	selective versus other PDE family members tested	> 100	> 100	> 100	> 100	> 100	> 100	–
Cc1ccc(/C(O)=C2/C(=O)C(=O)N(c3ccccc3)C2=S)cc1 [Compound B, 4-[Hydroxy(4-methylphenyl)methylidene]-1-phenyl-5-thioxopyrrolidine-2,3-dione]	in the nanomolar range	0.1	selective versus other PDE family members tested	22	13	> 100	77	16	9.3	–
CC1CC(=O)NN=C1c1cc(-n2ccnc2)cs1 (stereo not shown) [Motapizone]	–	–	–	–	–	–	–	–	–	Block of PDE3 activity (PDE3): completely blocked
COc1ccc(Cc2nc3c(ncn3C(CCCc3ccccc3)C(C)=O)c(=O)[nH]2)cc1OC (stereo not shown) [PDP]	–	–	–	–	–	–	–	–	–	Inhibition of cyclic GMP-induced cyclic AMP degrading activity increment (PDE2) (PDE2): completely inhibited
COc1ccc(C(=O)Nc2c(Cl)cncc2Cl)cc1OC1CCCC1 [Piclamilast]	–	–	–	–	–	–	–	–	–	Block of PDE4 activity (PDE4): completely blocked
CCCc1nn(C)c2c(=O)[nH]c(-c3cc(S(=O)(=O)N4CCN(C)CC4)ccc3OCC)nc12 [Sildenafil]	–	–	–	–	–	–	–	–	–	Block of PDE5 activity (PDE5): completely blocked
